This is an account of results in US20130035329A1, “THERAPEUTICALLY ACTIVE COMPOSITIONS AND THEIR METHODS OF USE” (priority 2009, published 2013).

A word on the IC50: it is the concentration that gives 50% inhibition. A high value points to lower potency.

Chain of IDH1 R132H (O75874 whole entry R132H): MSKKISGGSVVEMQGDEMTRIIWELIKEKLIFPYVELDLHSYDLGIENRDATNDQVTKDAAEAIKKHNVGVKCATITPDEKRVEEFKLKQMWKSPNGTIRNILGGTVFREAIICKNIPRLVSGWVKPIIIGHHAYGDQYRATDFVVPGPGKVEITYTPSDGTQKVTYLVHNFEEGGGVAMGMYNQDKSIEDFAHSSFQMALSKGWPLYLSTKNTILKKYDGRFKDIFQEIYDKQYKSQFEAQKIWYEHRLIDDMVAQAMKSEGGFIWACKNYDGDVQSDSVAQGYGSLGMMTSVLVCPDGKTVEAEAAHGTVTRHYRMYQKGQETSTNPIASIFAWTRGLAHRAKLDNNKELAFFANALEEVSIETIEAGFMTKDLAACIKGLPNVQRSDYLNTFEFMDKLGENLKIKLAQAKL

In the first assay the target is IDH1 R132H (Homo sapiens, UniProt O75874, R132H). Briefly: High Throughput Screening (HTS) for IDH1 R132H inhibitors (resazurin/NADPH fluorescence assay). It counts as biochemical. The settings on record: IDH1m; assay similar to Example 1; class symbols. The procedure:
A compound described herein may be an inhibitor of IDH1m. […] B refers to an inhibitor of IDH1m with an IC50 between 1 μM and 50 μM. C refers to an inhibitor of IDH1m with an IC50 greater than 50 μM. D refers to a compound wherein an IC50 is not available.
Assays were conducted in a volume of 76 μl assay buffer (150 mM NaCl, 10 mM MgCl2, 20 mM Tris pH 7.5, 0.03% bovine serum albumin) as follows in a standard 384-well plate: To 25 ul of substrate mix (8 uM NADPH, 2 mM aKG), 1 μl of test compound was added in DMSO. The plate was centrifuged briefly, and then 25 μl of enzyme mix was added (0.2 μg/ml ICDH1 R132H) followed by a brief centrifugation and shake at 100 RPM. The reaction was incubated for 50 minutes at room temperature, then 25 μl of detection mix (30 μM resazurin, […]) was added and the mixture further incubated for 5 minutes at room temperature. The conversion of resazurin to resorufine was detected by fluorescent spectroscopy at Ex544 Em590 c/o 590.
For orientation: Alamar Blue is a resazurin reagent that responds to reducing activity.
`COc1ccccc1N1CCN(C(=O)c2cccc(S(=O)(=O)Nc3ccc(C(C)(C)C)cc3)c2)CC1` had a concentration for half-maximal inhibition (IC50) of 1 to 50 µM.

Regarding `CCCCc1ccc(NS(=O)(=O)c2ccc(C)c(C(=O)N3CCN(c4ccccc4)CC3)c2)cc1`, the IC50 lay within 1 to 50 µM.

With `COc1ccccc1N1CCN(C(=O)c2cc(S(=O)(=O)Nc3ccc(OC(C)C)cc3)ccc2C)CC1`, the IC50 lay within 1 to 50 µM.

For `COc1ccccc1N1CCN(C(=O)c2cc(S(=O)(=O)Nc3ccc(C(C)(C)C)cc3)ccc2C)CC1`, the IC50 fell in the range of 1 to 50 µM.

As for `CCOc1ccc(NS(=O)(=O)c2ccc(C)c(C(=O)N3CCN(c4ccccc4OC)CC3)c2)cc1`, the half-maximal inhibitory concentration (IC50) was in the range of 1 to 50 µM.

For `CCCCc1ccc(NS(=O)(=O)c2cccc(C(=O)N3CCN(c4ccnc5[nH]ccc45)CC3)c2)cc1`, the half-inhibitory concentration (IC50) is 1 to 50 µM.

For `CCCCc1ccc(NS(=O)(=O)c2ccc(C)c(C(=O)N3CCN(c4ccccc4F)CC3)c2)cc1`, the IC50 lay within 1 to 50 µM.

Take `CCCCc1ccc(NS(=O)(=O)c2ccc(C)c(C(=O)N3CCN(c4ccccc4C)CC3)c2)cc1`: the IC50 was < 1 µM.

Regarding `CCCCc1ccc(NS(=O)(=O)c2ccc(C)c(C(=O)N3CCN(C(=O)c4ccccc4)CC3)c2)cc1`, the IC50 lay within 1 to 50 µM.

For the compound `CCCCc1ccc(NS(=O)(=O)c2ccc(C)c(C(=O)N3CCN(C(=O)Cc4ccccc4)CC3)c2)cc1`, the 50% inhibitory concentration (IC50) fell in the range of 1 to 50 µM.

For `CCCCc1ccc(NS(=O)(=O)c2ccc(C)c(C(=O)N3CCN(CC(C)c4ccccc4)CC3)c2)cc1` (stereo not drawn), the 50% inhibitory concentration (IC50) was 1 to 50 µM.

The compound `CCCCc1ccc(NS(=O)(=O)c2ccc(C)c(C(=O)N3CCN(Cc4ccccc4CC)CC3)c2)cc1` registered an IC50 of 1 to 50 µM.

In the case of `CCCCc1ccc(NS(=O)(=O)c2ccc(C)c(C(=O)N3CCN(CCc4ccccc4)CC3)c2)cc1`, the IC50 was 1 to 50 µM.

`CCCCc1ccc(NS(=O)(=O)c2ccc(C)c(C(=O)N3CCN(C(C)c4ccccc4)CC3)c2)cc1` (stereo not drawn): the IC50 lay within 1 to 50 µM.

For `CCCCc1ccc(NS(=O)(=O)c2ccc(C)c(C(=O)N3CCN(C(=O)OCc4ccccc4)CC3)c2)cc1`, the half-inhibitory concentration (IC50) is 1 to 50 µM.

Consider `CCCCc1ccc(NS(=O)(=O)c2ccc(C)c(C(=O)N3CCN(C(=O)Oc4ccccc4)CC3)c2)cc1`, for which the IC50 was in the range of 1 to 50 µM.

For the compound `CCCCc1ccc(NS(=O)(=O)c2ccc(C)c(C(=O)N3CCN(C(=O)OCC(C)C)CC3)c2)cc1`, the concentration for half-maximal inhibition (IC50) is 1 to 50 µM.

`CCCCc1ccc(NS(=O)(=O)c2ccc(C)c(C(=O)N3CCN(C(=O)OC(C)C)CC3)c2)cc1` registered a concentration for half-maximal inhibition (IC50) of 1 to 50 µM.

On to `CCCCc1ccc(NS(=O)(=O)c2ccc(C)c(C(=O)N3CCN(c4ccccc4CC)CC3)c2)cc1`, for which the IC50 is < 1 µM.

With `CCCCc1ccc(NS(=O)(=O)c2ccc(C)c(C(=O)N3CCN(c4ccc(Cl)cc4)CC3)c2)cc1`, the half-inhibitory concentration (IC50) lay in the range of 1 to 50 µM.

For the compound `CCCCc1ccc(NS(=O)(=O)c2ccc(C)c(C(=O)N3CCN(c4ccc(OCCC)cc4)CC3)c2)cc1`, the 50% inhibitory concentration (IC50) lay in the range of 1 to 50 µM.

`CCCCc1ccc(NS(=O)(=O)c2ccc(C)c(C(=O)N3CCCN(c4ccccc4F)CC3)c2)cc1` returned an IC50 of 1 to 50 µM.

The compound `CCCCc1ccc(NS(=O)(=O)c2ccc(C)c(C(=O)N3CCCN(c4ccccc4C)CC3)c2)cc1` came in with a 50% inhibitory concentration (IC50) of 1 to 50 µM.

With `CCCCc1ccc(NS(=O)(=O)c2ccc(C)c(C(=O)N3CCN(c4ccccc4OCC)CC3)c2)cc1`, the IC50 was 1 to 50 µM.

`COc1ccccc1N1CCN(C(=O)c2cc(S(=O)(=O)Nc3ccc(OCc4nnco4)cc3)ccc2C)CC1`: the IC50 fell in the range of 1 to 50 µM.

The compound `CCCCc1ccc(NS(=O)(=O)c2ccc(C)c(C(=O)N3CCN(c4ccccc4OC(C)C)CC3)c2)cc1` registered an IC50 of 1 to 50 µM.

Compound `CCCCc1ccc(NS(=O)(=O)c2ccc(C)c(C(=O)N3CCN(c4ccccc4OCC4CC4)CC3)c2)cc1` registered a half-inhibitory concentration (IC50) of 1 to 50 µM.

As to `CCCCc1ccc(NS(=O)(=O)c2ccc(C)c(C(=O)N3CCN(c4ccccc4OCCC)CC3)c2)cc1`, the IC50 was in the range of 1 to 50 µM.

`CCCCc1ccc(NS(=O)(=O)c2ccc(C)c(C(=O)N3CCN(c4cccc(Cl)c4)CC3)c2)cc1` had an IC50 of 1 to 50 µM.

Consider `CCCCc1ccc(NS(=O)(=O)c2ccc(C)c(C(=O)N3CCN(c4ccc(OC)cc4OC)CC3)c2)cc1`, for which the IC50 fell in the range of 1 to 50 µM.

The compound `CCCCc1ccc(NS(=O)(=O)c2ccc(C)c(C(=O)N3CCN(c4ccc(OC)cc4O)CC3)c2)cc1` had an IC50 of 1 to 50 µM.

In the case of `CCCCc1ccc(NS(=O)(=O)c2ccc(C)c(C(=O)N3CCN(c4ccc(F)c(OC)c4)CC3)c2)cc1`, the concentration for half-maximal inhibition (IC50) fell in the range of 1 to 50 µM.

As to `CCCCc1ccc(NS(=O)(=O)c2ccc(C)c(C(=O)N3CCN(c4ccccc4Br)CC3)c2)cc1`, the 50% inhibitory concentration (IC50) fell in the range of 1 to 50 µM.

As to `COc1ccccc1N1CCN(C(=O)c2cc(S(=O)(=O)Nc3ccc4[nH]ccc4c3)ccc2C)CC1`, the half-maximal inhibitory concentration (IC50) was 1 to 50 µM.

In turn, `CCCCc1ccc(NS(=O)(=O)c2ccc(C)c(C(=O)N3CCN(c4ccccc4C(F)(F)F)CC3)c2)cc1` returned a half-inhibitory concentration (IC50) of 1 to 50 µM.

Consider `COCOc1ccc(NS(=O)(=O)c2ccc(C)c(C(=O)N3CCN(c4ccccc4OC)CC3)c2)cc1`, for which the IC50 lay within 1 to 50 µM.

For `COCCOCOc1ccc(NS(=O)(=O)c2ccc(C)c(C(=O)N3CCN(c4ccccc4OC)CC3)c2)cc1`, the concentration for half-maximal inhibition (IC50) was 1 to 50 µM.

`CCCCOc1ccc(NS(=O)(=O)c2ccc(C)c(C(=O)N3CCN(c4ccccc4OC)CC3)c2)c(C)c1C` gave a half-inhibitory concentration (IC50) of 1 to 50 µM.

Compound `CCCCc1ccc(NS(=O)(=O)c2cc3c(c(C(=O)N4CCN(c5ccccc5OC)CC4)c2)OCCO3)cc1` registered an IC50 of 1 to 50 µM.

`CCCCc1ccc(NS(=O)(=O)c2ccc(C)c(C(=O)N3CCN(c4c(C)cccc4C)CC3)c2)cc1` registered an IC50 of 1 to 50 µM.

The compound `CCCCc1ccc(NS(=O)(=O)c2ccc(C)c(C(=O)N3CCN(c4ccccc4OC)CC3)c2)c(N(C)C)c1` came in with a 50% inhibitory concentration (IC50) of 1 to 50 µM.

The compound `CCCCc1ccc(NS(=O)(=O)c2cc3c(c(C(=O)N4CCN(c5ccccc5OC)CC4)c2)OCCN3)cc1` showed a half-maximal inhibitory concentration (IC50) of 1 to 50 µM.

Consider `C=Cc1ccc(S(=O)(=O)Nc2ccc(CCCC)cc2)cc1C(=O)N1CCN(c2ccccc2OC)CC1`, for which the IC50 is 1 to 50 µM.

Compound `C#CCc1ccc(S(=O)(=O)Nc2ccc(CCCC)cc2)cc1C(=O)N1CCN(c2ccccc2OC)CC1` registered a concentration for half-maximal inhibition (IC50) of 1 to 50 µM.

`COc1ccccc1N1CCN(C(=O)c2cc(S(=O)(=O)Nc3ccc(C)c4cc[nH]c34)ccc2C)CC1` returned an IC50 of 1 to 50 µM.

As for `COc1ccccc1N1CCN(C(=O)c2cccc(S(=O)(=O)Nc3ccccc3)c2)CC1`, the IC50 was > 50 µM.

Turning to `O=C(c1cccc(S(=O)(=O)Nc2ccc(Cl)cc2)c1)N1CCN(c2ccccc2)CC1`, the half-inhibitory concentration (IC50) is > 50 µM.

Take `COc1ccccc1NS(=O)(=O)c1cccc(C(=O)N2CCN(c3ccccc3)CC2)c1`: the IC50 is > 50 µM.

Consider `COc1ccccc1NS(=O)(=O)c1cccc(C(=O)N2CCN(c3ccccc3OC)CC2)c1`, for which the half-maximal inhibitory concentration (IC50) is > 50 µM.

As to `COc1ccccc1N1CCCN(C(=O)c2cccc(S(=O)(=O)Nc3ccc(Cl)cc3)c2)CC1`, the half-inhibitory concentration (IC50) was > 50 µM.

`Cc1ccc(NS(=O)(=O)c2cccc(C(=O)N3CCN(c4ccccc4)CC3)c2)cc1`: the half-maximal inhibitory concentration (IC50) is > 50 µM.

Turning to `O=C(c1cccc(S(=O)(=O)Nc2ccccc2F)c1)N1CCN(c2ccccn2)CC1`, the IC50 is > 50 µM.

`COc1ccccc1N1CCCN(C(=O)c2cccc(S(=O)(=O)Nc3ccccc3F)c2)CC1` showed a 50% inhibitory concentration (IC50) of 1 to 50 µM.

As to `COc1ccccc1N1CCN(C(=O)c2cc(S(=O)(=O)Nc3ccccc3)ccc2C)CC1`, the IC50 is > 50 µM.

With `COc1ccc(NS(=O)(=O)c2cccc(C(=O)N3CCCN(c4ccccc4OC)CC3)c2)cc1`, the IC50 was > 50 µM.

Consider `Cc1cc(F)ccc1NS(=O)(=O)c1cccc(C(=O)N2CCN(c3ccccc3)CC2)c1`, for which the IC50 was > 50 µM.

For `Cc1ccc(S(=O)(=O)Nc2ccccc2F)cc1C(=O)N1CCN(c2ccccn2)CC1`, the half-inhibitory concentration (IC50) was > 50 µM.

For `COc1ccccc1N1CCCN(C(=O)c2cccc(S(=O)(=O)Nc3ccc(C)cc3)c2)CC1`, the 50% inhibitory concentration (IC50) was > 50 µM.

As to `COc1ccccc1N1CCN(C(=O)c2cc(S(=O)(=O)Nc3ccccc3F)ccc2C)CC1`, the IC50 is > 50 µM.

Consider `COc1ccc(NS(=O)(=O)c2ccc(C)c(C(=O)N3CCN(c4ccccn4)CC3)c2)cc1`, for which the IC50 was > 50 µM.

Take `CCCCc1ccc(NS(=O)(=O)c2ccc(Cl)c(C(=O)N3CCN(C(C)=O)CC3)c2)cc1`: the half-maximal inhibitory concentration (IC50) is > 50 µM.

As to `COc1ccccc1N1CCN(C(=O)c2cc(S(=O)(=O)Nc3ccc(CCN4CCCC4)cc3)ccc2C)CC1`, the half-maximal inhibitory concentration (IC50) is > 50 µM.

The compound `CCCCc1ccc(C(=O)Nc2cccc(C(=O)N3CCN(c4ccccc4OC)CC3)c2)cc1` gave an IC50 of 1 to 50 µM.

For the compound `CCCCc1ccc(OC(=O)Nc2cccc(C(=O)N3CCN(c4ccccc4OC)CC3)c2)cc1`, the IC50 was > 50 µM.

The assay is the same for the next values; noted with them: IDH1m; number printed in Table 1 instead of a class symbol.
Compound `COc1ccc(NS(=O)(=O)c2ccc(C)c(C(=O)N3CCN(c4ccccc4)CC3)c2)cc1` had an IC50 of 51 µM.

The test system of the next assay is recurrent glioma.
Assay: not given
The settings on record: recurrent glioma patients; bevacizumab used with irinotecan; cited from earlier work.
Turning to “bevacizumab: "The anti-angiogenic agent bevacizumab"; listed among "exemplary antibodies"”, the 6-month survival is reported as 46%.
